Test results as given in US11339130B1 (Blade Therapeutics, Inc., priority 2016, dated 2022).
Read-outs that look alike come from different tables or passages of the source.

Columns and labels:
Human Calpain 2/NS1 = target: T1, Human Calpain 2/NS1 (Homo sapiens, UniProt P17655); assay: Calpain inhibition continuous fluorescence (FRET) assay, Human Calpain 2/NS1; format: biochemical; conditions: read-out: Human Calpain 2/NS1 IC50
T1 sequence (P17655 1-700): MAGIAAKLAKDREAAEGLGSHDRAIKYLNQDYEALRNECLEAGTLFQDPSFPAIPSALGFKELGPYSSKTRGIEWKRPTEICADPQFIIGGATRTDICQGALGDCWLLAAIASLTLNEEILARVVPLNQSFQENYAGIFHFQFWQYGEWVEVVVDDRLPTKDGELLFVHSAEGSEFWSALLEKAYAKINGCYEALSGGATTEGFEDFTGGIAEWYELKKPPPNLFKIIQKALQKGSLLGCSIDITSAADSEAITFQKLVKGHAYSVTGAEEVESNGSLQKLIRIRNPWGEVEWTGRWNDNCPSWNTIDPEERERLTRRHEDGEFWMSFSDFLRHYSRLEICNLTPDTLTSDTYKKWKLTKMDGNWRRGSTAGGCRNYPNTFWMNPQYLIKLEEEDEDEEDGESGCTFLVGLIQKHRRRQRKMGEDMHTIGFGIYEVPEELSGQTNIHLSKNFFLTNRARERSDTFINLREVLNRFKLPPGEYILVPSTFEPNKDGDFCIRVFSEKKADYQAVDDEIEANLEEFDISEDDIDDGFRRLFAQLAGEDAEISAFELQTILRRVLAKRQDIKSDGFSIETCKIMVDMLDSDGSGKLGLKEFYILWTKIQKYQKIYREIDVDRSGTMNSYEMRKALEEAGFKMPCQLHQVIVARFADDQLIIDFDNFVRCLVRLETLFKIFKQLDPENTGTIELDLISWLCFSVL
T1 sequence (P04632 1-268 partner): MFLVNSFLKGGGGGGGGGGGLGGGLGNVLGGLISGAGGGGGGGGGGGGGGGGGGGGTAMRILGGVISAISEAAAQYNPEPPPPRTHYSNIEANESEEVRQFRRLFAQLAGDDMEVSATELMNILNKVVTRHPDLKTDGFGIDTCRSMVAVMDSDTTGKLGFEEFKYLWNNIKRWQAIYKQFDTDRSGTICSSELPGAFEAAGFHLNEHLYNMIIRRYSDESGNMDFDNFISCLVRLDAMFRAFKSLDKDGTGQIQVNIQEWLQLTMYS
Summary of the method: (§1)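 Fluorescence increase from the cleaved 5-FAM/QXL 520 substrate, read at 490/520 nm, gave activity. Calcium was supplied with the substrate to activate the enzyme in situ after a 25C enzyme-inhibitor preincubation, and IC50s were fit from initial slopes.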

[1] = test system: Calpain activity in SH-SY5Y cells (SBDP-150); assay: SH-SY5Y Spectrin western blot assay (SBDP-150 breakdown product, A23187-induced); format: cell-based; conditions: Homo sapiens, read-out: SH-SY5Y Spectrin IC50
Human Calpain 1/NS1 = target: T2, Human Calpain 1/NS1 (Homo sapiens, UniProt P07384); assay: Calpain inhibition continuous fluorescence (FRET) assay, Human Calpain 1/NS1; format: biochemical; conditions: read-out: Human Calpain 1/NS1 IC50
T2 sequence (P07384 1-714): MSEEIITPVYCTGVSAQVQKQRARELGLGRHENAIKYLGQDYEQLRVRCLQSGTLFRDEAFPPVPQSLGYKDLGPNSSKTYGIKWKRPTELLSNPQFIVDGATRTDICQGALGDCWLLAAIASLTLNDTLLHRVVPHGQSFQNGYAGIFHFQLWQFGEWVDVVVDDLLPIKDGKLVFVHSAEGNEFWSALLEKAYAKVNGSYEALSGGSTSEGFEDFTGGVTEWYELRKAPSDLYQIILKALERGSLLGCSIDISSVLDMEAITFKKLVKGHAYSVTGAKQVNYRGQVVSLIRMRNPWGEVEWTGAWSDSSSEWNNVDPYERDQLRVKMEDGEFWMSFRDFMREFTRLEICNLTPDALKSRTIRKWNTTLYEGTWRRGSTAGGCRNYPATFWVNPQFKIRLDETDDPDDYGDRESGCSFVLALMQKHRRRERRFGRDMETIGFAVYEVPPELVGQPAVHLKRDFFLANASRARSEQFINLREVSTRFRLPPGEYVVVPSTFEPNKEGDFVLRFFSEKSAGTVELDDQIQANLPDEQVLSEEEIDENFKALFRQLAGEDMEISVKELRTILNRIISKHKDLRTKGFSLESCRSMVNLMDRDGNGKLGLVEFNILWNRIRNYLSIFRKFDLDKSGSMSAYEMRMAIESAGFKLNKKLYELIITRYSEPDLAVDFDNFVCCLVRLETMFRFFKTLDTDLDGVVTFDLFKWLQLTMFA
T2 sequence (P04632 1-268 partner): T1 sequence (P04632 1-268 partner)
Summary of the method: as §1

Human Calpain 9/NS1 = target: T3, Human Calpain 9/NS1 (Homo sapiens, UniProt O14815); assay: Calpain inhibition continuous fluorescence (FRET) assay, Human Calpain 9/NS1; format: biochemical; conditions: read-out: Human Calpain 9/NS1 IC50
T3 sequence (O14815 1-690): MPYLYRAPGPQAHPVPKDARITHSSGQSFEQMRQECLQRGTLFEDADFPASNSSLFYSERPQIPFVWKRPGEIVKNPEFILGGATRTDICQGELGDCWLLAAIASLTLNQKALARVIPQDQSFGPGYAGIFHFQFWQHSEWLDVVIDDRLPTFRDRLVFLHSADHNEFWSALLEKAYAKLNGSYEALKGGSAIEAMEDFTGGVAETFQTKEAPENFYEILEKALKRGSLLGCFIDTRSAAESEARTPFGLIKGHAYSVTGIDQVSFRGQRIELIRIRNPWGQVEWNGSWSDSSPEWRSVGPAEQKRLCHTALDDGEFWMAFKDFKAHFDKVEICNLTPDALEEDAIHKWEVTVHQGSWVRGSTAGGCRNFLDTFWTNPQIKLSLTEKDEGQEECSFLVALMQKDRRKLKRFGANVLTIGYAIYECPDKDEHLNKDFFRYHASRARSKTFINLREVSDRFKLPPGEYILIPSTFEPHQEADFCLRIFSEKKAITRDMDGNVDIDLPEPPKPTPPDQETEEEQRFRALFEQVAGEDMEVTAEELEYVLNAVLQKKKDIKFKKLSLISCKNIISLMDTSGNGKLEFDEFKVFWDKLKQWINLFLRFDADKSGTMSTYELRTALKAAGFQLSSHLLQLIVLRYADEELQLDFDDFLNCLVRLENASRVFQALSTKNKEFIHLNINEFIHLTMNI
T3 sequence (P04632 1-268 partner): T1 sequence (P04632 1-268 partner)
Summary of the method: as §1

[2] = test system: Calpain activity in SH-SY5Y cells; assay: SH-SY5Y + AMC fluorescence assay (Suc-LLVY-AMC substrate); format: cell-based
[3] = Column D, SH-SY5Y cells, A23187-induced SBDP-150
[4] = Column E, read-out: SH-SY5Y + AMC IC50
[5] = SH-SY5Y cells, A23187-induced SBDP-150, western blot

IC50 (Human Calpain 2/NS1; Column B) | IC50 [1, 3] | IC50 (Human Calpain 1/NS1; Column A) | IC50 (Human Calpain 9/NS1; Column C) | IC50 [2, 4] | IC50 (Human Calpain 2/NS1) | IC50 [1, 5] | IC50 (Human Calpain 1/NS1) | IC50 (Human Calpain 9/NS1) | IC50 ([2]; read-out: SH-SY5Y + AMC IC50) | Structure (SMILES) | IC50 ([1]; SH-SY5Y) | IC50 ([2]; read-out: SH-SY5Y + AMC IC50, Column E)
< 3 µM | 10 to 25 µM | < 3 µM | < 3 µM | < 10 µM | – | – | – | – | – | Cc1n[nH]c(-c2ccccc2)c1C(=O)N[C@@H](Cc1ccccc1)C(=O)C(N)=O [Compound 257, (S)—N-(4-amino-3,4-dioxo-1-phenylbutan-2-yl)-3-methyl-5-phenyl-1H-pyrazole-4-carboxamide] | – | –
– | – | – | – | – | < 3 µM | < 10 µM | < 3 µM | < 3 µM | > 25 µM | NC(=O)C(=O)C(Cc1ccccc1)NC(=O)c1nsnc1-c1cccc(F)c1 (stereo not shown) [Compound 321, N-(4-amino-3,4-dioxo-1-phenylbutan-2-yl)-4-(3-fluorophenyl)-1,2,5-thiadiazole-3-carboxamide] | – | –
– | – | – | – | – | < 3 µM | > 25 µM | < 3 µM | < 3 µM | < 10 µM | NC(=O)C(=O)C(Cc1ccccc1)NC(=O)c1cn(-c2ccccc2F)nc1-c1ccccc1 (stereo not shown) [Compound 527, N-(4-amino-3,4-dioxo-1-phenylbutan-2-yl)-1-(2-fluorophenyl)-3-phenyl-1H-pyrazole-4-carb oxamide] | – | –
– | – | – | – | – | < 3 µM | 10 to 25 µM | < 3 µM | < 3 µM | > 25 µM | Cn1cc(C(=O)N[C@H](C=O)Cc2ccccc2)c(-c2ccccc2)n1 [Compound 317, (S)-1-methyl-N-(1-oxo-3-phenylpropan-2-yl)-3-phenyl-1H-pyrazole-4-carboxamide] | – | –
– | – | – | – | – | 3 to 10 µM | > 25 µM | > 10 µM | 3 to 10 µM | < 10 µM | Cc1cc(C(=O)N[C@@H](Cc2ccccc2)C(=O)C(N)=O)nn1-c1ccnc(Cl)n1 [Compound 435, (S)—N-(4-amino-3,4-dioxo-1-phenylbutan-2-yl)-1-(2-chloropyrimidin-4-yl)-5-methyl-1H-pyrazole-3-carboxamide] | – | –
– | – | – | – | – | < 3 µM | > 25 µM | < 3 µM | < 3 µM | > 25 µM | Cc1cccc(-c2nn(C)cc2C(=O)N[C@H](C=O)Cc2ccccc2)c1 [Compound 329, (S)-1-methyl-N-(1-oxo-3-phenylpropan-2-yl)-3-(M-tolyl)-1H-pyrazole-4-carboxamide] | – | –

Further lines, the compound ahead of its results:

Structure (SMILES) | IC50 (Human Calpain 2/NS1; Column B) | IC50 [1, 3] | IC50 (Human Calpain 1/NS1; Column A) | IC50 (Human Calpain 9/NS1; Column C) | IC50 [2, 4] | IC50 (Human Calpain 2/NS1) | IC50 [1, 5] | IC50 (Human Calpain 1/NS1) | IC50 (Human Calpain 9/NS1) | IC50 ([2]; read-out: SH-SY5Y + AMC IC50) | IC50 ([1]; SH-SY5Y) | IC50 ([2]; read-out: SH-SY5Y + AMC IC50, Column E)
Cn1cc(C(=O)NC(Cc2ccccc2)C(=O)C(N)=O)c(-c2cc3ccccc3cn2)n1 (stereo not shown) [Compound 602, N-(4-amino-3,4-dioxo-1-phenylbutan-2-yl)-3-(isoquinolin-3-yl)-1-methyl-1H-pyrazole-4-carboxamide] | – | – | – | – | – | < 3 µM | 10 to 25 µM | < 3 µM | < 3 µM | > 25 µM | – | –
Cc1cc(C(=O)N[C@@H](Cc2ccccc2)C(=O)C(N)=O)n(-c2ccc(-c3ccccc3)cc2)n1 [Compound 83, (S)-1-([1,1′-biphenyl]-4-yl)-N-(4-amino-3,4-dioxo-1-phenylbutan-2-yl)-3-methyl-1H-pyrazole-5-carboxamide] | < 3 µM | < 10 µM | < 3 µM | < 3 µM | > 25 µM | – | – | – | – | – | – | –
Cn1cc(C(=O)NC(Cc2ccccc2)C(=O)C(N)=O)c(-c2cccc(C(F)(F)F)n2)n1 (stereo not shown) [Compound 198, N-(4-amino-3,4-dioxo-1-phenylbutan-2-yl)-1-methyl-3-(6-(trifluoromethyl)pyridin-2-yl)-1H-pyrazole-4-carboxamide] | < 3 µM | – | < 3 µM | < 3 µM | – | – | – | – | – | – | > 25 µM | > 25 µM
Cc1cc(C(=O)N[C@@H](Cc2ccccc2)C(=O)C(N)=O)n(-c2nc(-c3ccccc3)cs2)n1 [Compound 82, (S)—N-(4-amino-3,4-dioxo-1-phenylbutan-2-yl)-3-methyl-1-(4-phenylthiazol-2-yl)-1H-pyrazole-5-carboxamide] | < 3 µM | < 10 µM | < 3 µM | < 3 µM | > 25 µM | – | – | – | – | – | – | –
Cn1cc(C(=O)NC(Cc2ccccc2)C(=O)C(N)=O)c(-c2cccc(C(F)F)c2)n1 (stereo not shown) [Compound 508, N-(4-amino-3,4-dioxo-1-phenylbutan-2-yl)-3-(3-(difluoromethyl)phenyl)-1-methyl-1H-pyrazole-4-carboxamide] | – | – | – | – | – | < 3 µM | < 10 µM | < 3 µM | < 3 µM | < 10 µM | – | –
Cc1nc(-c2ccccc2)c(C(=O)N[C@@H](Cc2ccccc2)C(=O)C(N)=O)o1 [Compound 26, (S)—N-(4-amino-3,4-dioxo-1-phenylbutan-2-yl)-2-methyl-4-phenyloxazole-5-carboxamide] | < 3 µM | < 10 µM | < 3 µM | < 3 µM | < 10 µM | – | – | – | – | – | – | –
Cc1cc(C(=O)N[C@@H](Cc2ccccc2)C(=O)C(N)=O)n(-c2cnccn2)n1 [Compound 63, (S)—N-(4-amino-3,4-dioxo-1-phenylbutan-2-yl)-3-methyl-1-(pyrazin-2-yl)-1H-pyrazole-5-carboxamide] | < 3 µM | < 10 µM | < 3 µM | < 3 µM | < 10 µM | – | – | – | – | – | – | –
Cc1cc(C(=O)NC(Cc2ccccc2)C(=O)C(N)=O)n(-c2ccnc(C(C)C)n2)n1 (stereo not shown) [Compound 431, N-(4-amino-3,4-dioxo-1-phenylbutan-2-yl)-1-(2-isopropylpyrimidin-4-yl)-3-methyl-1H-pyrazole-5-carboxamide] | – | – | – | – | – | < 3 µM | > 25 µM | < 3 µM | < 3 µM | < 10 µM | – | –
